These are literature values, as cited in US20100008866A1, “CIS-CYCLOHEXYL SUBSTITUTED PYRIMIDINONE DERIVATIVES” (Neurogen Corporation, priority 2006, published 2010).

pKi: −log10 of the molar value.

The data set concerns the target VR (Homo sapiens, UniProt Q8NER1). Conditions: typically; no more than moderate affinity; read-out: Ki value (binds to VR).

VR, sequence (Q8NER1 whole entry): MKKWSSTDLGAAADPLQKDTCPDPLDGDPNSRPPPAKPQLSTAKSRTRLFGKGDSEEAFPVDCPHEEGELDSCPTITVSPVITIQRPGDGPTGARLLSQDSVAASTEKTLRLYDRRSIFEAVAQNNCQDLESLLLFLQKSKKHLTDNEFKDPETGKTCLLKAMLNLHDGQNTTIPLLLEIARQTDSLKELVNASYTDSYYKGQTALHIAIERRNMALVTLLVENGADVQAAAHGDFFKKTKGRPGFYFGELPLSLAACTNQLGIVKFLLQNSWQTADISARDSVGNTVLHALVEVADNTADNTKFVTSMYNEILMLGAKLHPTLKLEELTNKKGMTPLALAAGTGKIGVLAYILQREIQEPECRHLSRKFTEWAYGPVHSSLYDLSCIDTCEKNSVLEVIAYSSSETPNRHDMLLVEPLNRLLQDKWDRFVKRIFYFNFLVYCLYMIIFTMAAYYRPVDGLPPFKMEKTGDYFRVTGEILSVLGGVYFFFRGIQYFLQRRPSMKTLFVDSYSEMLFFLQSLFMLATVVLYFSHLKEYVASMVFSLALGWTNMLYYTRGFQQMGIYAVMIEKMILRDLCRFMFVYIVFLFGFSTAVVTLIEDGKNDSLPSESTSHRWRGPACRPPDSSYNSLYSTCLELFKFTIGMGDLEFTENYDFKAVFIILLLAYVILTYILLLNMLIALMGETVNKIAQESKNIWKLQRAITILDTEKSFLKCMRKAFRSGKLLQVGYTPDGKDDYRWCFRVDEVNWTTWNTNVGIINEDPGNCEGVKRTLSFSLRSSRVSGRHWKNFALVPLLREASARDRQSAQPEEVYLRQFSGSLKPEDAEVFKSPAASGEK

Consider `Cl.Cl.Cl.Cl.Cl.Cl.N.N.N.N.N.N.N.N.N.N.N.N.N.N.[O-2].[O-2].[Ru+3].[Ru+3].[Ru+4]` [ruthenium red], for which the pKi is at most 3.85.
